Laboratory results: the NIST ThermoML archive (doi:10.1016/j.fluid.2008.01.004)

How the values were obtained:
[1] = wn = mass fraction of the nth substance listed; details: 101 kPa, Liquid; for speed of sound: Sing-around technique in a fixed-path interferometer
[2] = mn = molality of the nth substance listed, in mol/kg; details: 283.15 K; 101 kPa; Liquid; m2 = 0

CCCO [propan-1-ol] + O
[1]
Details	mass density, 283.15 K [kg/m3]	mass density, 288.15 K [kg/m3]	mass density, 293.15 K [kg/m3]	mass density, 298.15 K [kg/m3]	mass density, 303.15 K [kg/m3]	speed of sound, 283.15 K [m/s]	speed of sound, 288.15 K [m/s]	speed of sound, 293.15 K [m/s]	speed of sound, 298.15 K [m/s]	speed of sound, 303.15 K [m/s]
w1 = 0.05	992.405	991.687	990.671	989.387	987.86	1499	1512.2	1523.9	1533.8	1542.2
w1 = 0.1	987.187	986.194	984.913	983.372	981.595	1548.6	1556.5	1563.3	1568.7	1572.9
w1 = 0.15	982.892	981.496	979.828	977.921	975.791	1585.2	1587.6	1589	1589.2	1588.6

O [water] + O=P([O-])([O-])[O-].[Na+].[Na+].[Na+]
Details	mass density [kg/m3]
[2]	999.699
